Entries after “also recorded” stand apart in the source; their conditions may differ.
Assays:
BorH/Trp = experiment: Isothermal titration calorimetry, FAD into BorH preincubated with Trp; type: binding, uncultured soil actinomycetes
Method: (§1) ITC experiments were performed using a VP-ITC isothermal titration calorimeter (MicroCal) in 20 mM HEPES pH 7.5, 350 mM NaCl, 1 mM ethylenediamine tetraacetic acid (EDTA) and 15% (v/v) glycerol. Solutions of AbeH, BorH, FAD (Chem-Implex), and Trp (Acros Organics) were prepared in the same buffer and degassed under vacuum at 30 °C for 20 min before loading in the syringe or cell. To analyze formation of binary complexes, AbeH or BorH was placed inside the cell, and ligand (FAD or Trp) was injected. For ternary complex titration, one ligand was preincubated with the macromolecule for 30 min at 30 °C to form binary complexes of AbeH/FAD, AbeH/Trp, BorH/FAD, and BorH/Trp before titrating with the second ligand. […] Formation of FADH2 by sodium dithionite was verified using absorbance and fluorescence spectrophotometry.
(§2) ITC experiments were performed with reference power set to 10 μcal/s and Milli-Q water in the reference cell. […] Heats of dilution for all titrants were measured by titrating ligand into buffer for binary complex titrations, and by titrating ligand into a solution containing the other ligand but no protein for ternary complex titration. […]
(§3) Titrations were analyzed by manually integrating each injection, subtracting the heat of dilution, and carrying out nonlinear least-squares fit of the calorimetric binding data to a one-site model using Origin 7.0 (Origin Lab). […]

BorH/FAD = experiment: Isothermal titration calorimetry, Trp into BorH preincubated with FAD; type: binding, uncultured soil actinomycetes
Method: as §1, §2, §3

SMILES	Binding of FAD to preincubated BorH/Trp by ITC, in words (BorH/Trp; 0.63 mM FAD into 10 μM BorH preincubated with 18 mM Trp (95% saturated))	KD, FAD binding to BorH/Trp, ITC (BorH/Trp; BorH preincubated with Trp)	Binding of Trp to preincubated BorH/FAD by ITC, in words (BorH/FAD; 21 mM Trp into 8 μM BorH preincubated with 5 mM FAD, listed as Trp)	KD, Trp binding to BorH/FAD, ITC (BorH/FAD; BorH preincubated with FAD)
Cc1cc2nc3c(=O)[nH]c(=O)nc-3n(C[C@H](O)[C@H](O)[C@H](O)COP(=O)(O)OP(=O)(O)OC[C@H]3O[C@@H](n4cnc5c(N)ncnc54)[C@H](O)[C@@H]3O)c2cc1C [FAD]	No binding was observed; also recorded: failed to detect any heat of binding; also recorded: no evidence of binding	no binding		
N[C@@H](Cc1c[nH]c2ccccc12)C(=O)O [Tryptophan, L-tryptophan]			No binding was observed; also recorded: no evidence of Trp binding	no binding
